Laboratory results from patent publication US4684630A, “Method of parenterally delivering drugs and related compositions” (priority 1985, dated 1987).
Converted amounts (≈) assume the structure as drawn. Like-named read-outs stand apart in the source and are kept apart here.

Key:
physchem = type: physicochemical
Experimental: (§1) Two neat, anhydrous solutions of ara-AC dissolved in DMSO and DMA, respectively, were prepared. […] Ara-AC has a solubility of approximately 20 mg/ml in water. The effective dose for ara-AC is 700 mg. […] At higher temperatures (e.g., 50°-60° C.), the ara-AC has proven stable for at least 3 weeks. Thus, the solutions of ara-AC in DMSO and DMA appear to be stable enough for commercial production, handling, and storage. By contrast, a solution of ara-AC in water would degrade 10% in 1.8 hours at 25° C.

[1] = Degradation kinetics of ara-AC in aqueous and mixed organic-aqueous solvent systems at 25° C. (reverse phase HPLC)
[2] = Precipitation on further dilution of the organic-aqueous solutions with sterile intravenous solutions; type: physicochemical; settings: solutions of Example 3 diluted with 5% dextrose-0.45% saline or 0.9% saline; 250 ml/hr vehicle, 6 ml/hr drug solution, 12 hours
Experimental: The organic-aqueous solutions of Example 3 are further diluted with two standard sterile intravenous solutions: a 5% dextrose-0.45% saline solution and a 0.9% saline solution. The aqueous delivery vehicles were delivered at a rate of 250 ml/hr. The concentrated drug solutions (approx. 10 mg/ml) were introduced through a side arm tubing located several inches above the injection point for 12 hours at the rate of 6 ml/hr. measured by a calibrated infusion pump. […] At this rate, the effective dosage concentration per unit volume of the final organic-aqueous solution was approximately 1 mg/ml. The final diluted organic-aqueous solutions were filtered using Wattman filter paper.

[3] = type: physicochemical; settings: for time for which ara-AC has proven stable: neat, higher temperatures (e.g., 50°-60° C.)
Experimental: as §1

[4] = Buffer (phosphate 0.01 M, pH 7.0, μ = 0.1 with NaCl), ara-AC 0.25 mg/ml, measured pH 7.0, 25° C.
[5] = Distilled H2O, ara-AC 0.25 mg/ml, measured pH 6.8, 25° C.

## Nc1ncn([C@@H]2O[C@H](CO)[C@@H](O)[C@@H]2O)c(=O)n1 [ara-AC, 5-azacytosine arabinoside]
physchem; dma, organic solvent or mixture
  solubility: 170 mg/mL (≈ 696 mM)
physchem; dmso, organic solvent or mixture
  solubility: 370 mg/mL (≈ 1520 mM)
physchem; water
  solubility: ~20 mg/mL (≈ 81.9 mM)
[1]; 5% DMA in Buffer (phosphate 0.01 M, pH 6.8), ara-AC 5.0 mg/ml, apparent pH 7.0, 25° C.
  t90: 1.9 h
[1]; 5% DMSO in Buffer (phosphate 0.01 M, pH 6.8), ara-AC 5.0 mg/ml, apparent pH 7.0, 25° C.
  t90: 2.0 h
[1]; 10% DMA in Buffer (phosphate 0.01 M, pH 6.8), ara-AC 5.0 mg/ml, apparent pH 7.1, 25° C.
  t90: 2.2 h
[1]; 10% DMSO in Buffer, ara-AC 5.0 mg/ml, apparent pH 7.1, 25° C.
  t90: 2.5 h
[1]; 25% DMA in Buffer (phosphate 0.01 M, pH 6.8), ara-AC 5.0 mg/ml, apparent pH 7.4, 25° C.
  t90: 2.7 h
[1]; 25% DMSO in Buffer, ara-AC 5.0 mg/ml, apparent pH 7.4, 25° C.
  t90: 2.8 h
[1]; 50% DMA in Buffer (phosphate 0.01 M, pH 6.8), ara-AC 5.0 mg/ml, apparent pH 8.1, 25° C.
  t90: 4.5 h
[1]; 55% DMA in Buffer (phosphate 0.01 M, pH 6.8), ara-AC 5.0 mg/ml, apparent pH 8.3, 25° C.
  t90: 6.0 h
[1]; 60% DMA in Buffer (phosphate 0.03 M, pH 6.0, μ = 0.3 M with NaCl), ara-AC 5.0 mg/ml, apparent pH 7.4, 25° C.
  t90: 15.0 h
[1]; 60% DMSO in Buffer (phosphate 0.03 M, pH 6.0, μ = 0.3 M with NaCl), ara-AC 5.0 mg/ml, apparent pH 7.8, 25° C.
  t90: 16.0 h
[1]; 65 wt. % DMA-35 wt. % water solution
  t90: 16.0 h
[1]; 70% DMSO in H2O, ara-AC 5.0 mg/ml, apparent pH 8.0, 25° C.
  t90: 28.0 h
[1]; 70 wt % DMSO-30 wt. % water solution
  t90: 28.0 h
[1]; [4]
  Kobs (observed degradation rate constant): 1.55 × 10^-2 hr.^-1
  t90: 1.7 h
[1]; [5]
  Kobs (observed degradation rate constant): 1.34 × 10^-2 hr.^-1
  t90: 1.8 h
[1]; water, 25° C.
  t90 (10% decomposition in water): 1.8 h
[2]
  precipitation or other undesirable effects: No precipitation or other undesirable effects
[3]
  degradation during 5 months: no observable degradation
[3]; anhydrous DMA solution
  time for which ara-AC has proven stable: at least 3 weeks
[3]; anhydrous DMSO solution
  time for which ara-AC has proven stable: at least 3 weeks

## Nc1ncn([C@@H]2O[C@H](CO)[C@@H](O)[C@H]2O)c(=O)n1 [5-AC, 5-azacytidine]
[2]
  precipitation or other undesirable effects: No precipitation or other undesirable effects
